Source: paper PMC3048208 (British Journal of Cancer, 2011)
Structures can show the parent of a compound that is named as a salt. Marks after values point to notes of the source that are not given here.

System: patients with advanced solid tumours
Assay: Phase I safety: DLT and adverse events (CTCAE v3.0)
[1] = Grades 3/4, level 5.5, 60 mg, 7 patients
[2] = Grades 3/4, level 6, 70 mg, 6 patients
[3] = Grades 3/4, level 7, 90 mg, 2 patients
[4] = all 38 treated patients, all grades
[5] = dose level 3, dose 20, 5 days every 2 weeks
[6] = dose level 6, dose 70, 5 days every 2 weeks, re-opened for expansion

In the case of `CCCCc1nc2cc(/C=C/C(=O)NO)ccc2n1CCN(CC)CC` [SB939, 3-[2-butyl-1-(2-diethylaminoethyl)-1H-benzoimidazol-5-yl]-N-hydroxyacrylami-hydrochloride], the “AST (raised), no. of patients” value [1] is reported as 0, the “Abdominal pain, no. of patients” value [1] is reported as 0 and the “Alkaline phophatase (raised), no. of patients” value [1] is reported as 0. For the same compound, the “Altered taste, no. of patients” value [1] was 0, the “Anaemia, no. of patients” value [1] was 0 and the “Anorexia, no. of patients” value [1] was 0. For the same compound, the “Bilirubin (raised), no. of patients” value [1] was 0, the “CPK, no. of patients” value [1] was 0 and the “Cardiac arrythmia other, no. of patients” value [1] was 0. The “Cardiac dysfunction, no. of patients” value [1] was 0, the “Cardiac ischaemia, no. of patients” value [1] was 0 and the “Constipation, no. of patients” value [1] was 0. For the same compound, the “Creatinine (raised), no. of patients” value [1] was 0, the “Diarrhoea, no. of patients” value [1] was 1 and the “Fatigue, no. of patients” value [1] was 1. For the same compound, the “Leukopenia, no. of patients” value [1] was 1, the “Lymphopenia, no. of patients” value [1] was 3 and the “Mucositis, no. of patients” value [1] was 0. The “Myositis, no. of patients” value [1] was 0, the “Nausea, no. of patients” value [1] was 0 and the “Neutropenia, no. of patients” value [1] was 0. The “QT prolongation, no. of patients” value [1] was 0, the “Supra ventricular arrythmia, no. of patients” value [1] was 0 and the “Syncope, no. of patients” value [1] was 0. For the same compound, the “Thrombocytopenia, no. of patients” value [1] was 0, the “Ventricular arrythmias (PVCs), no. of patients” value [1] was 0 and the “Ventricular bigemini, no. of patients” value [1] was 0. The “Vomiting, no. of patients” value [1] was 0, the “ALT (raised), no. of patients” value [2] was 0 and the “AST (raised), no. of patients” value [2] was 0. The “Abdominal pain, no. of patients” value [2] was 0, the “Alkaline phophatase (raised), no. of patients” value [2] was 0 and the “Altered taste, no. of patients” value [2] was 0. The “Anaemia, no. of patients” value [2] was 0, the “Anorexia, no. of patients” value [2] was 0 and the “Bilirubin (raised), no. of patients” value [2] was 0. For the same compound, the “CPK, no. of patients” value [2] was 0, the “Cardiac arrythmia other, no. of patients” value [2] was 0 and the “Cardiac dysfunction, no. of patients” value [2] was 0. For the same compound, the “Cardiac ischaemia, no. of patients” value [2] was 0, the “Constipation, no. of patients” value [2] was 0 and the “Creatinine (raised), no. of patients” value [2] was 0. For the same compound, the “Diarrhoea, no. of patients” value [2] was 0, the “Fatigue, no. of patients” value [2] was 2 and the “Leukopenia, no. of patients” value [2] was 1. For the same compound, the “Lymphopenia, no. of patients” value [2] was 3, the “Mucositis, no. of patients” value [2] was 0 and the “Myositis, no. of patients” value [2] was 0. For the same compound, the “Nausea, no. of patients” value [2] was 0, the “Neutropenia, no. of patients” value [2] was 1 and the “QT prolongation, no. of patients” value [2] was 0. The “Supra ventricular arrythmia, no. of patients” value [2] was 0, the “Syncope, no. of patients” value [2] was 0 and the “Thrombocytopenia, no. of patients” value [2] was 1. The “Ventricular arrythmias (PVCs), no. of patients” value [2] was 0, the “Ventricular bigemini, no. of patients” value [2] was 0 and the “Vomiting, no. of patients” value [2] was 0. The “ALT (raised), no. of patients” value [3] was 0, the “AST (raised), no. of patients” value [3] was 0 and the “Abdominal pain, no. of patients” value [3] was 0. The “Alkaline phophatase (raised), no. of patients” value [3] was 0, the “Altered taste, no. of patients” value [3] was 0 and the “Anaemia, no. of patients” value [3] was 0. The “Anorexia, no. of patients” value [3] was 0, the “Bilirubin (raised), no. of patients” value [3] was 0 and the “CPK, no. of patients” value [3] was 0. The “Cardiac arrythmia other, no. of patients” value [3] was 0, the “Cardiac dysfunction, no. of patients” value [3] was 0 and the “Cardiac ischaemia, no. of patients” value [3] was 0. The “Constipation, no. of patients” value [3] was 0, the “Creatinine (raised), no. of patients” value [3] was 0 and the “Diarrhoea, no. of patients” value [3] was 0. For the same compound, the “Fatigue, no. of patients” value [3] was 1, the “Leukopenia, no. of patients” value [3] was 0 and the “Lymphopenia, no. of patients” value [3] was 0. For the same compound, the “Mucositis, no. of patients” value [3] was 0, the “Myositis, no. of patients” value [3] was 0 and the “Nausea, no. of patients” value [3] was 0. The “Neutropenia, no. of patients” value [3] was 0, the “QT prolongation, no. of patients” value [3] was 0 and the “Supra ventricular arrythmia, no. of patients” value [3] was 0. For the same compound, the “Syncope, no. of patients” value [3] was 0, the “Thrombocytopenia, no. of patients” value [3] was 0 and the “Ventricular arrythmias (PVCs), no. of patients” value [3] was 0. The “Ventricular bigemini, no. of patients” value [3] was 0, the “Vomiting, no. of patients” value [3] was 1 and the “Dose omissions, no. of patients” value (RPTD 60 mg, n=7, alteration of liver function tests) was “two”. The “Dose reductions, no. of patients” value (RPTD 60 mg, n=7, transaminase rise and QTc prolongation) was “two”, the “Grade 3 diarrhea, no. of patients” value (all 38 treated patients) was “one” and the “Grade 3 fatigue, no. of patients” value (all 38 treated patients) was 4. The “Grade 3 myositis, no. of patients” value (all 38 treated patients) was “one”, the “Grade 3 syncope, no. of patients” value (all 38 treated patients) was “one” and the “Grade 3 vomiting, no. of patients” value (all 38 treated patients) was “one”. For the same compound, the “Anorexia, related AE, frequency” value [4] was 29%, the “Diarrhoea, related AE, frequency” value [4] was 18% and the “Fatigue, related AE, frequency” value [4] was 53%. For the same compound, the “Nausea, related AE, frequency” value [4] was 39%, the “Vomiting, related AE, frequency” value [4] was 29% and the “Grade 2 QTc prolongation, no. of patients” value (all dose levels) was “four”. The “Grade 3 QTc elevations” value (all dose levels) was “none were grade 3”, the “No. of patients with DLT/total no. of patients treated” value (dose level 1, dose 10, 3 days every 2 weeks) was 0/3 and the “No. of patients with DLT/total no. of patients treated” value (dose level 2, dose 10, 5 days every 2 weeks, grade 3 bilirubin subsequently declared not drug related) was 1/6 ^a. The DLT [5] was “Grade 3 myositis”, the “No. of patients with DLT/total no. of patients treated” value [5] was 1/6 and the “No. of patients with DLT/total no. of patients treated” value (dose level 4, dose 30, 5 days every 2 weeks) was 0/4. The “No. of patients with DLT/total no. of patients treated” value (dose level 5, dose 50, 5 days every 2 weeks) was 0/4, the DLT (dose level 5.5, dose 60, 5 days every 2 weeks, not clear if entirely related to drug) was “Grade 3 ALT ^d” and the “No. of patients with DLT/total no. of patients treated” value (dose level 6, dose 70, 5 days every 2 weeks, escalation phase) was 0/3. The DLT [6] was “Grade 4 platelets Grade 3 fatigue”, the “No. of patients with DLT/total no. of patients treated” value [6] was 3/3 and the DLT (dose level 7, dose 90, 5 days every 2 weeks) was “Grade 3 fatigue Grade 3 vomiting”. The “No. of patients with DLT/total no. of patients treated” value (dose level 7, dose 90, 5 days every 2 weeks, neither patient completed a full cycle) was 1/2 ^b, the “Grade 2 QTc prolongation, no. of patients” value (dose level of 60 mg or higher) was “three” and the “Granulocytopenia, patients” value (dose levels ⩽50 mg) was 26%. The “Lymphopenia, patients” value (dose levels ⩽50 mg) was 57%, the “Granulocytopenia, patients” value (dose ⩾60 mg) was 60% and the “Lymphopenia, patients” value (dose ⩾60 mg) was 80%. For the same compound, the “Thrombocytopenia, patients” value (dose ⩾60 mg) was 87%, the “Anaemia, no. of patients” value (grade 1) was 25 and the “Anaemia, no. of patients” value (grade 2) was 10. The “Anaemia, no. of patients” value (grade 3) was 1, the “Anaemia on study, no. of patients” value (of 38 patients, any grade) was “Thirty-six” and the “Maximum QTc” value (one patient, Day 1 cycle 7, 10 h after dose, unclear if drug related) was 475 ms. For the same compound, the “LVEF during periods of arrhythmia” value (one patient, cycle 7, baseline 55%, unclear if drug related) was 20–39%, the “Recommended phase II dose (RPTD)” value (oral, 5 consecutive days every 2 weeks) was 60 mg and the “Maximal administered dose (MAD)” value (oral, 5 days every 2 weeks) was 90 mg. For the same compound, the “Grade 3 CPK elevation, no. of patients” value (patient with myositis) was “one”.
